How the values were obtained:
[1] = test system: recombinant MPO (N-methylputrescine oxidase); experiment: Recombinant MPO enzyme assay (Amplex red hydrogen peroxide/peroxidase system); format: biochemical, Nicotiana benthamiana
Method: Protein extracts was prepared from the roots of buffer control, TRV-GFP and TRV-MPO (214D11) infected plants. The extraction method described in Hashimoto T. et al. (Plant Physiol. 93: 216-221 (1990)) was used. Briefly, 1 g roots was ground in liquid nitrogen and suspended in 20 ml of extraction buffer containing 100 mM potassium phosphate pH 7.5, 0.25 M sucrose, 5 mM EDTA, 0.3% ascorbate and 10% PVPP. After centrifugation at 500 g for 30 min, the supernatant was further centrifuged at 11,000 g for another 30 minutes. The supernatant was subjected to two rounds of 20% and 40% ammonium sulphate precipitation. The precipitate was resuspended in 1 ml water, followed by dialysis overnight in 2 l of buffer containing 20 mM potassium phosphate pH 7.5, 1 mM DTT and 20% glycerol. The protein concentration was determined by DC protein assay kit (BioRad). […] After incubating the mixture at 30° C. for 30 min, the fluorescence was measured with a fluorescence microplate reader (Victor3 UV multilabel reader, PerkinElmer) using excitation at 530-560 nm and emission at 590 nm.
The ORF of the N. benthamiana MPO was expressed in E. coli and the recombinant enzyme was purified for biochemical characterization. […] The protein concentration was determined with DC protein assay kit (BioRad) and MPO purity was analyzed with SDS-PAGE electrophoresis (BioRad). […]

[2] = test system: MPO and PMT expression in roots; experiment: qRT-PCR analysis of MPO and PMT expression in MeJa-treated roots; format: in vivo, Nicotiana benthamiana; conditions: MeJa 11 μM in hydroponic solution
Method: Nicotiana benthamiana (Solanaceae) seedlings were grown hydroponically in 0.25× Hoagland's solution supplemented with iron chelate solution and oxygenated using an aquarium bubbler. Roots from three-week old plants were sampled before (t=0) and at 1, 4, and 7 hours after addition of MeJa to a final concentration of 11 μM. Total RNA was isolated from 450 mg each of untreated leaves, untreated roots, and a combined MeJa-treated root sample composed of 150 mg roots each from the 1, 4 and 7 hour time points using a RNeasy midi kit (Qiagen). We constructed three separate subtractive cDNA libraries: NBREL2, with mRNA pooled from MeJa-treated roots as tester and untreated root mRNA as driver; NBLEL3, with mRNA pooled from MeJa-treated roots as tester and leaf mRNA as driver; and NBREL4, with mRNA pooled from MeJa-treated roots as both tester and driver.
The inducibility of MPO by MeJa application was determined using quantitative RT-PCR (qRT-PCR). The same PCR primers were used as for RT-PCR analysis of expression in different tissues. Total RNA was extracted from hydroponically grown roots immediately before and 1, 4, and 7 hours after addition of MeJa (11 μM) to the hydroponic solution. Hydroponic conditions are detailed in Example 1. […]

MPO = conditions: compared with N-methylated diamines; Hashimoto 1990, Walton and McLauchlan 1990, Boswell 1999; cited from earlier work

Structure (SMILES): CNCCCCN [N-methylputrescine]
- Km ([1]; 1 μg Talon purified MPO, N-methylputrescine 10 mM to 0.01 mM, 30°, 30 minutes): 100 µM
- Substrate specificity of recombinant MPO ([1]; 1 mM of N-methylputrescine, putrescine, diaminopropane, cadaverine, spermine and spermidine (FIG. 9)): preferred N-methylputrescine as a substrate

Structure (SMILES): CC/C=C\CC1C(=O)CCC1CC(=O)OC (centres unmarked) [MeJa, methyljasmonate]
- Increase of MPO expression over pre-induction levels ([2]; roots before and 1, 4, 7 hours after, actin reference (FIG. 3)): 23 fold
- Change of PMT transcript levels in response to the inducer ([2]; roots, compared with MPO (FIG. 3)): even more dramatic increase

Structure (SMILES): NCCCCCN [Cadaverine]
- Affinity as substrate for MPO (MPO): lower affinity than N-methylated diamines

— patent publication US12018265B2, “Nucleic acid encoding n-methylputrescine oxidase and uses thereof” (22nd Century Limited, LLC, priority 2006, dated 2024)
